Measured values published in patent publication US8008354B2, “Death receptor sensitizing compounds and methods of use therefor” (Burnham Institute for Medical Research, priority 2006, dated 2011).

How the values were obtained:
[1] = tested on: PC-3, DU-145, LNCaP, T47D, MB-MDA-468 and OVCAR-3 cells; assay: Anoikis of additional malignant cell lines: colony formation after suspension culture; type: cell-based
Method: (§1) FIG. 14. Tumor cell sensitivity to anoikis correlates with sensitivity to Fas-mediated apoptosis. PC-3, DU-145, and LNCaP prostate, T47D and MB-MDA-468 breast, and OVCAR-3 ovarian cancer cells were cultured under adherent conditions with increasing concentrations of 5809354, in the presence or absence of Fas-activating antibody (CH-11, 100 ng/mL). Thirty hours after incubation, cell viability was determined using the MTS assay. Cell lines were also cultured under suspension conditions in the presence or absence of 5809354. Thirty hours after incubation, equal volumes of suspension-cultured cells were replated in a colony formation assay. Data represents the mean±SEM percent of viable cells or colonies compared to untreated controls.
(§2) Cell viability apoptosis, colony formation, and caspase activation assays. Cell viability was assessed using the MTS reduction assay (Promega, Madison, Wis., USA) according to the manufacturer's protocols and as described in Schimmer et al. (2006). Apoptosis was measured by flow cytometry to detect cell surface annexin V expression and propidium iodide (PI) uptake (Biovision, Mountain View, Calif., USA) as described in Carter et al. (2005). […] Clonogenic growth after suspension culture was measured using colony formation assays. […] Colonies were fixed, stained with methylene blue, and counted. […]

PPC-1 cells = assay: MTS viability of adherent PPC-1 cells with or without CH-11, thirty hours; type: cell-based, human; settings: CH-11 100 ng/mL
Method: FIG. 13. Small molecule down-regulation of FLIP sensitizes prostate cancer cells to anoikis. (A) PPC-1 cells were seeded overnight in adherent conditions and then treated with increasing concentrations of 5809354 for 16 hours. After incubation, cells were harvested. Total cellular RNA was extracted and mRNA levels of the long isoform of FLIP (FLIPL), the short isoform of FLIP (FLIPS), or rRNA levels of 18S were detected by real-time RT-PCR. Data were normalized using the ΔΔCT method and expressed as the mean±SEM percent of […] expression relative to untreated controls. (B) PPC-1 cells were cultured and treated as in panel A. Total cellular protein was isolated and analyzed by SDS-PAGE immunoblotting using anti-FLIP and anti-Actin antibodies. […] Thirty hours after incubation, cell viability was determined using the MTS assay. […] After incubation, apoptosis was measured by flow cytometry to detect cell surface annexin V expression and PI. […] (E) Cells were harvested, fixed, stained with DAPI, and nuclear morphology analyzed by fluorescence microscopy. […] One week later, cells were stained with methylene blue and the number of colonies counted. […]
Cell viability apoptosis, colony formation, and caspase activation assays. Cell viability was assessed using the MTS reduction assay (Promega, Madison, Wis., USA) according to the manufacturer's protocols and as described in Schimmer et al. (2006). […]

[2] = tested on: PC-3, DU-145, LNCaP, T47D, MB-MDA-468 and OVCAR-3 cells; assay: MTS viability of additional malignant cell lines under adherent conditions with or without CH-11; type: cell-based
Method: as §1, §2

4-(4-chloro-2-methylphenoxy)-N-hydroxybutanamide [compound 5809354]
sensitization to anoikis ([1]; LNCaP or MB-MDA-468 cells): did not sensitize | sensitization to anoikis ([1]; PC-3 and DU-145 prostate, T47D breast and OVCAR-3 ovarian cancer cell lines): sensitized | viability in the presence of Fas-activating antibody (CH-11) (PPC-1 cells): decreases in viability | sensitization to CH-11 ([2]; LNCaP or MB-MDA-468 cells): did not sensitize | sensitization to CH-11-induced apoptosis ([2]; PC-3, DU-145, T47D and OVCAR-3 cell lines, CH-11 100 ng/mL): sensitized
